Test results: patent US8889671B2, “Compounds and methods for treating bacterial infections” (AstraZeneca AB, priority 2013, dated 2014)
Converted amounts (≈) assume the structure as drawn. Where two headings read alike, the source gives them in different places.

Tests used:
Staphylococcus aureus = test: Susceptibility testing (MIC) Assay 1, broth microdilution; format: cell-based; conditions: Staphylococcus aureus
Description: (§1) Minimum Inhibitory Concentrations (MICs) were determined by the broth microdilution method in accordance with the Clinical and Laboratory Standards Institute (CLSI) guidelines. In brief, organism suspensions were adjusted to a 0.5 McFarland standard to yield a final inoculum between 3×10^5 and 7×10^5 colony-forming units (CFU)/mL. Bacterial inocula were prepared for most organisms in sterile, cation adjusted Mueller-Hinton Broth (Beckton Dickinson). The streptococci were prepared as above in cation adjusted Mueller-Hinton Broth to which 2.5% lysed horse blood (Hema Resource & Supply Inc.) was added. An inoculum volume of 100 μL was added to wells (using a Tecan EVO robot) containing 2 μL of DMSO containing 2-fold serial dilutions of drug. All inoculated microdilution trays were incubated in ambient air at 35° C. for 18-24 hours. Following incubation, the lowest concentration of the drug that prevented visible growth as read at OD600 nm and confirmed by a visual read using a test reading mirror was recorded as the MIC. Performance of the assay was monitored by the use of laboratory quality-control strains and commercially available control compounds with defined MIC spectrums, in accordance with CLSI guidelines. Table 1 provides the MIC results (μM) of Examples 1-77 tested in Assay 1. Table 2 provides the MIC (μg/mL) results of Examples 78-80 tested in Assay 1.

Streptococcus pneumoniae = test: as above; format: cell-based
Description: as §1

Streptococcus pyogenes = test: as above; format: cell-based; conditions: Streptococcus pyogenes, Streptococcus pyrgenes, in vivo strain; read-out: Spy MIC
Description: as §1

Escherichia coli = test: Susceptibility testing (MIC) Assay 2, broth microdilution; format: cell-based; conditions: K12, read-out: Eco MIC
Description: (§2) Minimum Inhibitory Concentrations (MICs) were determined by the broth microdilution method in accordance with the Clinical and Laboratory Standards Institute (CLSI) guidelines. In brief, organism suspensions were adjusted to a 0.5 McFarland standard to yield a final inoculum between 3×10^5 and 7×10^5 colony-forming units (CFU)/mL. Bacterial inocula were generally prepared in sterile, cation adjusted Mueller-Hinton Broth (Becton Dickinson) which included Escherichia coli, Klebsiella pneumoniae, and Pseudomonas aeruginosa. Haemophilus influenzae bacterial inocula were prepared in sterile, cation adjusted Mueller-Hinton Broth (Becton Dickinson) containing 0.5% yeast extract (Becton Dickinson) plus 30 mL of 15 μg/mL Bovine Hematin stock (Sigma), and 3 mL of 15 μg/mL β-nicotinamide adenine dinucleotide (Sigma). Strains of Neisseria were tested for MICs using agar dilution methodology in accordance with CLSI guidelines. For broth microdilution testing, an inoculum volume of 100 μL was added to wells (using a Tecan EVO robot) containing 2 μL of DMSO containing 2-fold serial dilutions of drug. All inoculated microdilution panels were incubated in ambient air at 35° C. for 18-24 hours. Following incubation, the lowest concentration of the drug that prevented visible growth as read at OD600 nm and confirmed by a visual read using a test reading mirror was recorded as the MIC. Performance of the assay was monitored by the use of laboratory quality-control strains and commercially available control compounds with defined MIC spectrums, in accordance with CLSI guidelines. Table 3 provides the MIC results (μM) of Examples 1-77 tested in Assay 2. Table 4 provides the MIC (μg/mL) results of Examples 78-80 tested in Assay 2.

Haemophilus influenzae = test: as above; format: cell-based; conditions: ATCC51907, Haemophilus influenzae, ATCC 51907, in vivo strain, read-out: Hin MIC
Description: as §2

Klebsiella pneumoniae = test: as above; format: cell-based; conditions: clinical isolate, mucoid, read-out: Kpn MIC
Description: as §2

Pseudomonas aeruginosa = test: as above; format: cell-based; conditions: PAO1, read-out: Pae MIC
Description: as §2

[1] = molecular target: Escherichia coli DNA gyrase A/B tetramer (Escherichia coli (strain K12), UniProt P0AES4+P0AES6); test: DNA gyrase supercoiling activity fluorescence polarisation assay; format: biochemical; conditions: Eco Gyr FP Mean IC50, E. coli DNA gyrase supercoiling, 0.3 mM ATP
Description: In a black, 384-well polystyrene assay plate, 30 microliters/well of 5 nM Escherichia coli DNA gyrase A/B tetramer and 130 micrograms/mL of topologically relaxed plasmid containing the triplex-forming sequence
in an assay buffer consisting of 35 mM Tris-HCl (pH 7.5), 24 mM KCl, 4 mM MgCl2, 2 mM dithiothreitol, 1.8 mM spermidine, 5% (v/v) glycerol, 200 nM bovine serum albumin, 0.8% dimethylsulfoxide, and 0.3 mM ATP were incubated at ambient temperature for (typically 30 minutes) in the absence or presence of 5-10 different concentrations of test compound. The supercoiling reactions were quenched by the addition of 10 microliters/well of 40 nM oligodeoxynucleotide probe in 3× triplex-forming buffer consisting of 150 mM NaCl, and 150 mM sodium acetate at pH 3.5. The oligodeoxynucleotide probe was 5′-BODIPY-FL-labeled
After 60 minutes, the fluorescence anisotropy of the BODIPY-FL was measured in a Tecan Ultra plate reader, using 485 nm excitation and 535 nm emission filters equipped with polarizers. The IC50 was determined by nonlinear regression using two control reactions.

[2] = Staphylococcus aureus in vivo strain, MSQS, read-out: Sau(d) MIC
[3] = in vivo strain, MRQR, read-out: Sau(e) MIC
[4] = in vivo strain (footnote b), read-out: Spn(b) MIC
[5] = in vivo strain (footnote c), read-out: Spn(c) MIC

| SMILES | MIC (Staphylococcus aureus; [2]) [µM] | MIC (Staphylococcus aureus; [3]) [µM] | MIC (Staphylococcus aureus; serum, read-out: Sau(f) MIC) [µM] | MIC (Streptococcus pneumoniae; [4]) [µM] | MIC (Streptococcus pneumoniae; [5]) [µM] | MIC (Streptococcus pyogenes) [µM] | MIC (Escherichia coli) [µM] | MIC (Haemophilus influenzae) [µM] | MIC (Klebsiella pneumoniae) [µM] | MIC (Pseudomonas aeruginosa) [µM] | IC50 [1] [nM] |
| --- | --- | --- | --- | --- | --- | --- | --- | --- | --- | --- | --- |
| C[C@@H]1CN2c3c(cc4c(N5C(=O)OC[C@@H]5c5ccccc5)noc4c3F)CC3(C(=O)NC(=O)NC3=O)[C@H]2[C@H](C)O1 [Example 9, (2R,4S,4aS)-11-Fluoro-2,4-dimethyl-8-[(4S)-2-oxo-4-phenyl-1,3-oxazolidin-3-yl]-1,2,4,4a-tetrahydro-2′H,6H-spiro[1,4-oxazino[4,3-a][1,2]oxazolo[4,5-g]quinoline-5,5′-pyrimidine]-2′,4′,6′(1′H,3′H)-trione] | 0.78 (≈ 0.429 µg/mL) | 0.78 (≈ 0.429 µg/mL) | 12 (≈ 6.59 µg/mL) | 1.6 (≈ 0.879 µg/mL) | 1.6 (≈ 0.879 µg/mL) | 0.78 (≈ 0.429 µg/mL) | 50 (≈ 27.5 µg/mL) | 0.39 (≈ 0.214 µg/mL) | > 200 | > 200 | 710 |
| C[C@@H]1CN2c3c(cc4c(N5C(=O)OC[C@H]5Cc5ccccc5)noc4c3F)CC3(C(=O)NC(=O)NC3=O)[C@H]2[C@H](C)O1 [Example 10, (2R,4S,4aS)-8-[(4R)-4-Benzyl-2-oxo-1,3-oxazolidin-3-yl]-11-fluoro-2,4-dimethyl-1,2,4,4a-tetrahydro-2′H,6H-spiro[1,4-oxazino[4,3-a][1,2]oxazolo[4,5-g]quinoline-5,5′-pyrimidine]-2′,4′,6′(1′H,3′H)-trione] | 6.2 (≈ 3.49 µg/mL) | 12 (≈ 6.76 µg/mL) | 200 (≈ 113 µg/mL) | 50 (≈ 28.2 µg/mL) | 50 (≈ 28.2 µg/mL) | 25 (≈ 14.1 µg/mL) | > 200 | 25 (≈ 14.1 µg/mL) | > 200 | > 200 | 6700 |
| C[C@@H]1CN2c3c(cc4c(N5C(=O)OC[C@@H]5Cc5ccccc5)noc4c3F)CC3(C(=O)NC(=O)NC3=O)[C@H]2[C@H](C)O1 [Example 11, (2R,4S,4aS)-8-[(4S)-4-Benzyl-2-oxo-1,3-oxazolidin-3-yl]-11-fluoro-2,4-dimethyl-1,2,4,4a-tetrahydro-2′H,6H-spiro[1,4-oxazino[4,3-a][1,2]oxazolo[4,5-g]quinoline-5,5′-pyrimidine]-2′,4′,6′(1′H,3′H)-trione] | 1.6 (≈ 0.902 µg/mL) | 1.6 (≈ 0.902 µg/mL) | 25 (≈ 14.1 µg/mL) | 3.1 (≈ 1.75 µg/mL) | 3.1 (≈ 1.75 µg/mL) | 3.1 (≈ 1.75 µg/mL) | 50 (≈ 28.2 µg/mL) | 3.1 (≈ 1.75 µg/mL) | > 200 | > 200 | 1200 |
| CC[C@H]1CN(c2noc3c(F)c4c(cc23)CC2(C(=O)NC(=O)NC2=O)[C@H]2[C@H](C)O[C@H](C)CN42)C(=O)O1 [Example 13, (2R,4S,4aS)-8-[(5S)-5-Ethyl-2-oxo-1,3-oxazolidin-3-yl]-11-fluoro-2,4-dimethyl-1,2,4,4a-tetrahydro-2′H,6H-spiro[1,4-oxazino[4,3-a][1,2]oxazolo[4,5-g]quinoline-5,5′-pyrimidine]-2′,4′,6′(1′H,3′H)-trione] | 0.39 (≈ 0.196 µg/mL) | 0.78 (≈ 0.391 µg/mL) | 0.78 (≈ 0.391 µg/mL) | 0.78 (≈ 0.391 µg/mL) | 0.78 (≈ 0.391 µg/mL) | 0.39 (≈ 0.196 µg/mL) | 12 (≈ 6.02 µg/mL) | 0.78 (≈ 0.391 µg/mL) | 200 (≈ 100 µg/mL) | > 200 | 510 |
| CC[C@@H]1CN(c2noc3c(F)c4c(cc23)CC2(C(=O)NC(=O)NC2=O)[C@H]2[C@H](C)O[C@H](C)CN42)C(=O)O1 [Example 14, (2R,4S,4aS)-8-[(5R)-5-Ethyl-2-oxo-1,3-oxazolidin-3-yl]-11-fluoro-2,4-dimethyl-1,2,4,4a-tetrahydro-2′H,6H-spiro[1,4-oxazino[4,3-a][1,2]oxazolo[4,5-g]quinoline-5,5′-pyrimidine]-2′,4′,6′(1′H,3′H)-trione] | 0.39 (≈ 0.196 µg/mL) | 0.78 (≈ 0.391 µg/mL) | 1.6 (≈ 0.802 µg/mL) | 0.78 (≈ 0.391 µg/mL) | 0.78 (≈ 0.391 µg/mL) | 0.78 (≈ 0.391 µg/mL) | 25 (≈ 12.5 µg/mL) | 0.78 (≈ 0.391 µg/mL) | 200 (≈ 100 µg/mL) | > 200 | 570 |
| C[C@@H]1CN2c3c(cc4c(N5C(=O)OC[C@@H]5CF)noc4c3F)CC3(C(=O)NC(=O)NC3=O)[C@H]2[C@H](C)O1 [Example 15, (2R,4S,4aS)-11-Fluoro-8-[(4R)-4-(fluoromethyl)-2-oxo-1,3-oxazolidin-3-yl]-2,4-dimethyl-1,2,4,4a-tetrahydro-2′H,6H-spiro[1,4-oxazino[4,3-a][1,2]oxazolo[4,5-g]quinoline-5,5′-pyrimidine]-2′,4′,6′(1′H,3′H)-trione] | 0.28 (≈ 0.142 µg/mL) | 0.78 (≈ 0.394 µg/mL) | 0.39 (≈ 0.197 µg/mL) | 0.28 (≈ 0.142 µg/mL) | 0.39 (≈ 0.197 µg/mL) | < 0.2 | 12 (≈ 6.07 µg/mL) | < 0.2 | > 200 | > 200 | 130 |
| C[C@@H]1CN2c3c(cc4c(N5C(=O)OC[C@H]5CF)noc4c3F)CC3(C(=O)NC(=O)NC3=O)[C@H]2[C@H](C)O1 [Example 16, (2R,4S,4aS)-11-Fluoro-8-[(4S)-4-(fluoromethyl)-2-oxo-1,3-oxazolidin-3-yl]-2,4-dimethyl-1,2,4,4a-tetrahydro-2′H,6H-spiro[1,4-oxazino[4,3-a][1,2]oxazolo[4,5-g]quinoline-5,5′-pyrimidine]-2′,4′,6′(1′H,3′H)-trione] | 0.39 (≈ 0.197 µg/mL) | 1.6 (≈ 0.809 µg/mL) | 1.6 (≈ 0.809 µg/mL) | 0.39 (≈ 0.197 µg/mL) | 0.39 (≈ 0.197 µg/mL) | 0.39 (≈ 0.197 µg/mL) | 25 (≈ 12.6 µg/mL) | 0.78 (≈ 0.394 µg/mL) | 200 (≈ 101 µg/mL) | > 200 | 190 |
| COC[C@@H]1COC(=O)N1c1noc2c(F)c3c(cc12)CC1(C(=O)NC(=O)NC1=O)[C@H]1[C@H](C)O[C@H](C)CN31 [Example 18, (2R,4S,4aS)-11-fluoro-8-[(4R)-4-(methoxymethyl)-2-oxo-1,3-oxazolidin-3-yl]-2,4-dimethyl-1,2,4,4a-tetrahydro-2′H,6H-spiro[1,4-oxazino[4,3-a][1,2]oxazolo[4,5-g]quinoline-5,5′-pyrimidine]-2′,4′,6′(1′H,3′H)-trione] | 3.1 (≈ 1.6 µg/mL) | 6.2 (≈ 3.21 µg/mL) | 12 (≈ 6.21 µg/mL) | 3.1 (≈ 1.6 µg/mL) | 6.2 (≈ 3.21 µg/mL) | 12 (≈ 6.21 µg/mL) | > 200 | 3.1 (≈ 1.6 µg/mL) | > 200 | > 200 | 810 |
| C[C@@H]1CN2c3c(cc4c(N5C[C@@H](CF)OC5=O)noc4c3F)CC3(C(=O)NC(=O)NC3=O)[C@H]2[C@H](C)O1 [Example 19] | 0.14 (≈ 0.0708 µg/mL) | 0.78 (≈ 0.394 µg/mL) | 0.28 (≈ 0.142 µg/mL) | < 0.2 | 0.24 (≈ 0.121 µg/mL) | < 0.2 | 8.8 (≈ 4.45 µg/mL) | 0.28 (≈ 0.142 µg/mL) | 200 (≈ 101 µg/mL) | > 200 | 160 |
| COC[C@@H]1CN(c2noc3c(Cl)c4c(cc23)CC2(C(=O)NC(=O)NC2=O)[C@H]2[C@H](C)O[C@H](C)CN42)C(=O)O1 [Example 20] | 0.28 (≈ 0.149 µg/mL) | 1.1 (≈ 0.587 µg/mL) | 0.39 (≈ 0.208 µg/mL) | 0.28 (≈ 0.149 µg/mL) | 0.28 (≈ 0.149 µg/mL) | 0.28 (≈ 0.149 µg/mL) | 25 (≈ 13.3 µg/mL) | 0.39 (≈ 0.208 µg/mL) | > 200 | > 200 | 420 |
